Measured values published in patent US4169157A, “Therapeutic preparations for peptic ulcers comprising aliphatic ketone derivative” (Eisai Co., Ltd., priority 1977, dated 1979).
Entries after “also recorded” stand apart in the source; their conditions may differ.

What was measured:
histamine ulcer = assay: Effect on the Histamine ulcer; type: in vivo, SD strain male rats; details: 100 mg/kg oral; for inhibition in vivo at 100 mg/kg: read-out: Inhibition rate to the development of the histamine ulcer
Protocol: According to the Okabe et al. method [[…] 26 (1) 89-93 (1975)], the inhibitory effects of the test compounds on the development of ulcer due to the administration of histamine were estimated using SD strain male rats weighing about 350 g as the test animals.
The methods for administration and estimation of the effect of the test compounds are carried out according to the procedure in pharmacological experiment 1.
A dose of the test compounds amounted to 100 mg/kg.
The histamine was administered intraperitoneally to the test animal in an amount of 200 mg/kg as the hydrochloride.
The effect was estimated 4 hours after the administration of the histamine.

subacute aspirin ulcer = assay: Effect on subacute aspirin ulcer; type: in vivo, SD strain male rats; details: for inhibition in vivo at 200 mg/kg: 144 h, read-out: Inhibition rate to the development of the subacute aspirin ulcer; for Inhibitory effect on subacute aspirin ulcer (in words): 200 mg/kg/day for five days
Protocol: Aspirin in amount of 200 mg/kg/day was orally administered to SD strain male rats (body weight of about 250 g, nine weeks old) after abstinence from the food for 24 hours. The rats were fed for one hour, after one hour from said administration, and again abstained from the food. The administration of aspirin was continued for five days in the same schedule as mentioned above. The effect was estimated on the sixth day.
All the test compounds were emulsified with 5% gum arabic solution and one drop of Tween 80. The emulsions were administered continuously for five days, together with aspirin to rat. The dose amounted to 200 mg/kg/day, and the volume of the dose was controlled to 0.5 ml/100 g B. W. The blank test was similarly effected as pharmacological experiment 1.
The effect of the test compound was estimated by finding the value (ulcer index) of the total lengths of erosions developed in the glandular portion of the test animal with respect to the test compounds group and the blank test group, respectively, and calculating from said value the effect of the administration of the test compounds as the inhibition rate.

[1] = test system: cold and restraint stress ulcer; assay: Effect on the cold and restraint stress ulcer; type: in vivo, SD strain female rats; details: 200 mg/kg oral; for inhibition in vivo at 200 mg/kg: 2 h, read-out: Inhibition rate to the development of the cold and restraint stress ulcer; for Inhibition rate to the development of the ulcer (in words): compared with control compound A (Gefarnate)
Protocol: Preventive effect of the test compounds on the development of the cold and restraint stress ulcer was estimated according to Levine's method [Proc. Soc. Exptl. Biol. Med., 124, 1221 (1967)], using SD strain female rats weighing about 170 g, and being 8-10 weeks old, as test animals.
All test compounds were suspended in 5% gum arabic solution and one drop of Tween 80, and the suspension was orally administered to rat. A dose amounted to 200 mg/kg, and the volume of the administrative dose was controlled to 0.5 ml/100 g B. W. As a blank test, 5% gum arabic solution was administered.
The administration of the test compounds and the blank test were carried out 30 minutes before adopting the cold and restraint stress.
The effect of the test compounds was estimated by finding the value (ulcer index) of the total length of the erosion observed in the glandular portion of the test animals two hours after the cold and restraint stress, and calculating the effect of the administration of said compounds as the inhibition rate of the development of the ulcer from the value. [formula]

indomethacin ulcer = assay: Effect on Indomethacin ulcer; type: in vivo, SD strain female rats; details: for inhibition in vivo at 100 mg/kg: 4 h, read-out: Inhibition rate on the development of indomethacin ulcer
Protocol: The inhibitory effects of the test compounds on the development of the ulcer due to the administration of indomethacin were estimated using SD strain female rats weighing about 200 g as the test animals.
The methods for administration and estimation of the effect of the test compounds are carried out according to the procedure in pharmacological experiment 2.
The dose of the test compound amounted to 100 mg/kg. The indomethacin was orally administered in the dose of 20 mg/kg. The effect was estimated four hours after the administration of indomethacin.

peptic ulcers = assay: Therapeutic effect on peptic ulcers (overall result of the pharmacological experiments); type: in vivo, SD strain rats; details: from the results of the above-described pharmacological experiments
[2] = histamine 200 mg/kg intraperitoneally, 4 hours after histamine, rat
[3] = 200 mg/kg/day for five days together with aspirin 200 mg/kg/day oral, estimated on sixth day, rat
[4] = 30 minutes before stress, ulcer index two hours after stress, rat
[5] = indomethacin 20 mg/kg oral, four hours after indomethacin, rat

| Compound | Effect on the histamine ulcer of rat (in words) (histamine ulcer) | inhibition in vivo at 100 mg/kg (histamine ulcer; [2]) [%] | inhibition in vivo at 200 mg/kg (subacute aspirin ulcer; [3]) [%] | inhibition in vivo at 200 mg/kg [1, 4] [%] | inhibition in vivo at 100 mg/kg (indomethacin ulcer; [5]) [%] | Inhibition rate to the development of the histamine ulcer (histamine ulcer; [2]) [%] | Inhibition rate to the development of the subacute aspirin ulcer (subacute aspirin ulcer; [3]) [%] | Inhibition rate to the development of the cold and restraint stress ulcer [1, 4] [%] | Inhibition rate to the development of the ulcer (in words) [1] | Therapeutic effect on the peptic ulcers (in words) (peptic ulcers) | Inhibition rate on the development of indomethacin ulcer (indomethacin ulcer; 100 mg/kg, indomethacin 20 mg/kg oral, four hours after indomethacin, rat) [%] | Inhibitory effect on subacute aspirin ulcer (in words) (subacute aspirin ulcer) | Inhibitory effect on the development of the indomethacin ulcer (in words) (indomethacin ulcer; 100 mg/kg) |
| --- | --- | --- | --- | --- | --- | --- | --- | --- | --- | --- | --- | --- | --- |
| CC(C)=CCCC(C)=CCCC(C)=CCCC(=O)OCC=C(C)CCC=C(C)C [control compound A, reference compound] | no appreciable effect | 15.4 | 21 | 47.2 | 45 |  |  |  |  |  |  |  |  |
| 6,10,14-trimethyl-5,9,13-octadecatriene-2-on [subject compound A] | more inhibitory effect than that of the control compound |  |  |  |  | 50.4 | 56.7 | 71.4 | higher than that of the control compound A | high therapeutic effect on the peptic ulcers | 75.4 |  |  |
| CC(=O)CCC=C(C)CCC=C(C)CCC=C(C)CCC=C(C)C [subject compound B, 6,10,14,18-tetramethyl-5,9,13,17-nonadecatetraene-2-on] | more inhibitory effect than that of the control compound | 53.8 | 73.2 | 75.7 | 91.3 |  |  |  | higher than that of the control compound A; also recorded: particularly the most effective compound | high therapeutic effect on the peptic ulcers |  | Inhibitory effect was shown | Particularly high inhibitory effect |
| CC(C)=CCCC(C)=CCCC(C)=CCCC(C)=CCCC(=O)C(C)C [subject compound C, 2,7,11,15,19-pentamethyl-6,10,14,18-eicosatetraene-3-on] |  | 44.7 | 50.9 | 67.1 | 86.7 |  |  |  | higher than that of the control compound A | high therapeutic effect on the peptic ulcers |  |  | Particularly high inhibitory effect |
| CC(=O)C(CC=C(C)CCC=C(C)CCC=C(C)CCC=C(C)C)C(C)=O [subject compound G, 3-acetyl-6,10,14,18-tetramethyl-5,9,13,17-nonadecatetraene-2-on] |  | 40.8 | 64.5 | 70.5 | 64.9 |  |  |  | higher than that of the control compound A | high therapeutic effect on the peptic ulcers |  |  |  |
| CC(=O)CCCC(C)CCCC(C)CCCC(C)CCCC(C)C (stereo not shown) [subject compound E, 6,10,14,18-tetramethyl-nonadecane-2-on] |  | 22.4 | 48.5 | 67.8 | 71.1 |  |  |  | higher than that of the control compound A | high therapeutic effect on the peptic ulcers |  |  |  |
| CCCC(=O)CCC=C(C)CCC=C(C)CCC=C(C)CCC=C(C)C [subject compound F, 8,12,16,20-tetramethyl-7,11,15,19-heneicosatetraene-4-on] | more inhibitory effect than that of the control compound | 49 | 52.7 | 69.5 | 88.5 |  |  |  | higher than that of the control compound A | high therapeutic effect on the peptic ulcers |  |  | Particularly high inhibitory effect |
| CC(=O)CCC=C(C)CCCC(C)CCCC(C)CCCC(C)C (stereo not shown) [subject compound D, 6,10,14,18-tetramethyl-5-nonadecaene-2-on] |  | 35.2 | 61.8 | 72 | 75.5 |  |  |  | higher than that of the control compound A | high therapeutic effect on the peptic ulcers |  | Inhibitory effect was shown |  |
